From ChEMBL document CHEMBL1275254 (2010)
≈ marks a conversion by molar mass, not a printed value.

Tested on: Burkholderia pseudomallei
Test: Antimicrobial activity against Burkholderia pseudomallei 1026b after 24 hrs by broth microdilution method
Format: functional

Row | Compound | MIC
1 | O=C(N[C@H](CO)[C@H](O)c1ccc([N+](=O)[O-])cc1)C(Cl)Cl [CHLORAMPHENICOL] | 8 µg/mL (≈ 24.8 µM)
2 | CC[C@H]1OC(=O)[C@H](C)[C@@H](O[C@H]2C[C@@](C)(OC)[C@@H](O)[C@H](C)O2)[C@H](C)[C@@H](O[C@@H]2O[C@H](C)C[C@H](N(C)C)[C@H]2O)[C@](C)(OC)C[C@@H](C)C(=O)[C@H](C)[C@@H](O)[C@]1(C)O [CLARITHROMYCIN] | 128 µg/mL (≈ 171 µM)
3 | CCC[C@@H]1C[C@@H](C(=O)N[C@@H]([C@H]2O[C@H](SC)[C@H](O)[C@@H](O)[C@H]2O)[C@H](C)Cl)N(C)C1 [CLINDAMYCIN] | > 4100 µg/mL
4 | NC[C@H]1O[C@H](O[C@H]2[C@H](O)[C@@H](O[C@H]3O[C@H](CO)[C@@H](O)[C@H](N)[C@H]3O)[C@H](N)C[C@@H]2N)[C@H](O)[C@@H](O)[C@@H]1O [KANAMYCIN] | 64 µg/mL (≈ 132 µM)
5 | CC1COc2c(N3CCN(C)CC3)c(F)cc3c(=O)c(C(=O)O)cn1c23 (stereo not drawn) [OFLOXACIN] | 2 µg/mL (≈ 5.53 µM)
6 | CN[C@@H]1[C@H](O)[C@H](NC)[C@H]2O[C@@]3(O)C(=O)C[C@@H](C)O[C@H]3O[C@@H]2[C@H]1O [SPECTINOMYCIN] | 2050 µg/mL (≈ 6160 µM)
7 | CN[C@@H]1[C@H](O[C@H]2[C@H](O[C@H]3[C@H](O)[C@@H](O)[C@H](N=C(N)N)[C@@H](O)[C@@H]3N=C(N)N)O[C@@H](C)[C@]2(O)C=O)O[C@@H](CO)[C@H](O)[C@H]1O [STREPTOMYCIN] | > 2050 µg/mL
8 | GENTAMICIN | 512 µg/mL
